This is an account of results in BindingDB's records for doi:10.1124/jpet.104.068320 (Actelion Pharmaceuticals, 2004).

In the experiment the target is T1, Urotensin-2 receptor (Rattus norvegicus, UniProt P49684).
T1 sequence (P49684 whole entry): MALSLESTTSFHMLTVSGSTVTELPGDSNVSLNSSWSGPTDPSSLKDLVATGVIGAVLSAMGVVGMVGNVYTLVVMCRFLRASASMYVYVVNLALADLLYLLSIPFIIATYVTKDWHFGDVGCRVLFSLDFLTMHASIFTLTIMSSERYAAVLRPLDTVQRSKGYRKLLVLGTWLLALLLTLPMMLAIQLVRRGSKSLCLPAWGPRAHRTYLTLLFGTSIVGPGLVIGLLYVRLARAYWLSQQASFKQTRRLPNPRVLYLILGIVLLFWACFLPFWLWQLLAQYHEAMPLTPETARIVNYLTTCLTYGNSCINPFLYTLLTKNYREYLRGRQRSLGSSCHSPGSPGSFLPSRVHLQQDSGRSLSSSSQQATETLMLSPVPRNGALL

Broadly, the Ki is a dissociation constant, usually derived from enzyme kinetics or from competition with a known ligand. In turn, `Cc1cc(NC(=O)NCCN2CCC(O)(Cc3ccccc3)CC2)c2ccccc2n1` [ACT-058362] yielded a Ki of 1470 nM. This lies in the single-digit micromolar range.
